This series is described as follows: conditioned taste aversion in rats. In kind it is in vivo, rat. As to conditions: for conditioned taste aversion (milk intake, preference ratio): I.P., day 10. On the procedure: The ability of a compound to inhibit feeding may not be related to its anorectic properties, but rather to the ability of that compound to produce a conditioned taste aversion. This possibility was tested in the following experiment. Animals were adapted to water deprivation by restricting their access to water to a single 30 min presentation occurring at the same time every day. Baseline water intakes were determined for 7 days until intakes had stabilized, and animals were assigned to treatment groups based on their intakes on the final baseline day. On the following day (day 8), all rats received a bottle of condensed milk (diluted 2:1 water:milk) in place of the water, and intakes were recorded for 30 min. Fifteen minutes after the milk was removed, rats were administered an I.P. injection of vehicles, LiCl (299.6 μmol/kg) or the compound of Example XII (1.15, 2.31, 11.55 and 23.09 μmol/kg). The compound of Example XII was dissolved in 0.3% acetic acid in a volume of 4 ml/kg. LiCl was dissolved in saline, and serves as a positive control, since it is a compound that reliably produces a strong conditioned taste aversion. This procedure was repeated on day 9. On day 10, all rats were given a two-bottle choice of water or the milk:water solution, and intakes were recorded for 30 min. Data for each experiment were analyzed by one-way ANOVA, and post-hoc comparisons were performed using Dunnett's test.
The effects of the compound of Example XII in producing a conditioned taste aversion are illustrated in FIGS. 28 and 29. In FIGS. 28 and 29 the data represent the mean ±SEM for each group. **=p<0.01 (Dunnett's test). Abbreviations: SAL, saline; AA, 0.3% acetic acid in distilled water; LiCl, lithium chloride. Doses of the compound of Example XII for each group are expressed in μmole/kg. The number of animals per group: SAL, 4: AA, LiCl and each dose of Example XII, 5. FIG. 28: Total milk intake in ml on day 10. FIG. 29: Preference ratio on day 10.

The structures appear in SMILES notation.

Turning to `Oc1ccc2c3c1O[C@H]1C(=NOc4ccccc4)CC[C@@]4(O)[C@@H](C2)N(CC2CC2)CC[C@]314` [Example XII, 6-Phenyloximino-17-cyclopropylmethyl-4,5 α-epoxy-3, 14-dihydroxymorphinan], the “conditioned taste aversion (milk intake, preference ratio)” value is given as “totally ineffective in producing a conditioned taste aversion”. For the same compound, the “conditioned taste aversion (milk intake, preference ratio)” value (listed as Compound XII) is recorded as “inability of various doses”. Further, where the note is “doses up to 23.09 μmol/kg”, the general malaise entry is “does not appear to cause any general malaise at doses up to 23.09 μmol/kg”.
